Measurements: publication PMC10246841, “CCX559 is a potent, orally-administered small molecule PD-L1 inhibitor that induces anti-tumor immunity” (PLOS ONE, 2023)

Assays:
PD-L1 = target: T1, PD-L1 (Homo sapiens, UniProt Q9NZQ7); assay: plate-based (ELISA-type) PD-1/PD-L1 binding inhibition assay with recombinant proteins; also CD80/PD-L1 inhibition and PathHunter PD-L1 dimerization in U2OS cells
T1 construct: gene CD274; with PD-1 (displaced in the assay); PD-L1 homodimer induced

cynomolgus PD-L1 = target: T2, cynomolgus PD-L1 (Macaca fascicularis, UniProt G7PSE7); assay: in vitro cynomolgus PD-L1/PD-1 interaction inhibition assay (S5 Fig); assay type: binding
T2 construct: with PD-1 (displaced in the assay)
T2 sequence (G7PSE7 19-238 limits assumed): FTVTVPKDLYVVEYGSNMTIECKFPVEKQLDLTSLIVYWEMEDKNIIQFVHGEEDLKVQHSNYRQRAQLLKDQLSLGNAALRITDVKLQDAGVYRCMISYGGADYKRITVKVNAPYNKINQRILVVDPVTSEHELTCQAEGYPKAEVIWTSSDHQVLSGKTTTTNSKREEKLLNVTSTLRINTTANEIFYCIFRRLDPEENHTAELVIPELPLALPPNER

T1 sequence (Q9NZQ7 19-290): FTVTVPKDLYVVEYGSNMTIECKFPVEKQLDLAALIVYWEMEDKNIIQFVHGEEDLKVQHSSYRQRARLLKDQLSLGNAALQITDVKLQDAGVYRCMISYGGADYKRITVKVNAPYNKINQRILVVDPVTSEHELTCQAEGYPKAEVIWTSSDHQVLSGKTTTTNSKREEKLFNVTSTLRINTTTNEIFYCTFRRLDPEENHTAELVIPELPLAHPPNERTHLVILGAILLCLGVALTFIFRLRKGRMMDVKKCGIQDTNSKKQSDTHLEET

In the case of CCX559, the IC50 (PD-L1) is reported as 0.47 nM and the IC50 (cynomolgus PD-L1) is reported as 0.21 nM.
